Data reported in patent US20160305924A1 (LAGUNA PHARMACEUTICALS , INC., priority 2013, published 2016).

Columns and labels:
Format in all cases: in vivo, human
[1] = Example 1: plasma concentrations of vanoxerine and metabolites after a 300 mg dose (LC-MS/MS); conditions: for High concentration group average (plasma concentration): 10 patients high concentration group; for Low concentration group average (plasma concentration): 15 patients low concentration group; for Concentrations (plasma): mean of 25 patients
Experimental: Each patient gave samples before administration of their dose, and then again at nine further time points, 30 minutes after administration, 1, 2, 3, 4, 6, 8, 12, and 24 hours post administration.
Evaluation of samples: A total of 270 human plasma samples were received (in duplicate). The samples were shipped frozen over dry ice. The samples were stored at −70° C. (nominal) until analysis.
Frozen samples were thawed at room temperature. Samples, calibrators, QC samples, sample blanks (blank plasma) and reagent blanks (water) were processed at room temperature. To 200 μL aliquots of each sample, calibrator, and QC sample are added 20 μL of 500 ng/mL of internal standard solution. A sample blank (blank plasma) and reagent blank (water) were also prepared, but without addition of internal standard solution (20 μL of diluent was added instead). To each sample, 200 μL of 1% ammonium hydroxide solution were added and vortex mixed. 3.0 mL of methyl tert-butyl ether were added and then vortex mix for 30 seconds. The sample is then centrifuged for 5 minutes at 4000 rpm and then transferred for about 30 minutes at −70° C. (nominal). The upper (organic) layer was transferred into an evaporation tubes and then evaporated under N2 stream at −50° C. for about 20 min. Samples were then reconstituted in 1000 μL reconstitution solution (80:20:0.1 water: acetonitrile: formic acid). Samples were mixed, allow to stand for about 3 minutes and mixed again. 900 μL of the sample solution was transferred to a 1.5 mL microcentrifuge tube and centrifuged for 5 minutes at 14000 rpm at room temperature. 800 μL of the sample solution was transferred to a glass autosampler vial, and then transferred to the autosampler for analysis. Samples were separated using reversed-phase liquid chromatography with a C18 column.
Chromatographic conditions were as follows: • HPLC instrument: Waters Alliance e2795 HT with temperature controlled autosampler • Column: Waters XBridge C18 3.5μ 100×2.1 mm P.N. 186003022, Lot No. 0143302711 with an appropriate guard column • Column temperature: 45° C. • Autosampler temp. 5° C. • Flow: 0.3 mL/min • Mobile phase A: 10 mM ammonium formate buffer:MeOH:ACN 80:10:10 • Mobile phase B: 10 mM ammonium formate buffer:MeOH:ACN 5:50:45 • Purge solvent: Water:ACN:formic acid 50:50:0.1 • Wash solvent: Water:ACN:formic acid 50:50:0.1 • Injection volume: 20 μL • Run Time: 15 minutes
Detection was based on electro-spray interface in positive mode (ESI+) LC-MS/MS technique, using Micromass Quattro Premier XE MS/MS detector with MassLynx and QuanLynx software version 4.1. […] The MRM transition for all hydroxyl metabolites was m/z 467→203.

[2] = Example 3: daily doses for 14 days after a standardized meal, serum levels and adverse events
Experimental: A standardized meal was served 15 minutes prior to each dosing.

[3] = tested on: recent onset symptomatic AF/AFL; experiment: Example 5: double-blinded placebo-controlled study, conversion to sinus rhythm
Description: (§1) The vanoxerine or identical appearing placebo was randomly assigned and administered in a double-blinded fashion.

[4] = Example 5: adverse events
Description: as §1

[5] = Example 4: daily doses for 7 days, hemodynamics and steady state; conditions: 50, 100, 150 mg daily, all patients
[6] = Example 2: daily doses for 11 consecutive days, PK and hemodynamics
[7] = 0.5 h post administration, 1.00 = below LLOQ

16-hydroxyl vanoxerine [M02]
High concentration group average (plasma concentration) ([1]; 0.5 h, 1.00 = below LLOQ): 1.00 ng/mL
High concentration group average (plasma concentration) ([1]; 1 h, 1.00 = below LLOQ): 1.00 ng/mL
High concentration group average (plasma concentration) ([1]; 6 h, 1.00 = below LLOQ): 1.00 ng/mL
High concentration group average (plasma concentration) ([1]; 8 h, 1.00 = below LLOQ): 1.00 ng/mL
High concentration group average (plasma concentration) ([1]; 12 h, 1.00 = below LLOQ): 1.00 ng/mL
High concentration group average (plasma concentration) ([1]; 24 h): 0.00 ng/mL
Low concentration group average (plasma concentration) ([1]; 0.5 h, 1.00 = below LLOQ): 1.00 ng/mL
Low concentration group average (plasma concentration) ([1]; 2 h, 1.00 = below LLOQ): 1.00 ng/mL
Low concentration group average (plasma concentration) ([1]; 3 h, 1.00 = below LLOQ): 1.00 ng/mL
Low concentration group average (plasma concentration) ([1]; 4 h, 1.00 = below LLOQ): 1.00 ng/mL
Low concentration group average (plasma concentration) ([1]; 6 h, 1.00 = below LLOQ): 1.00 ng/mL
Low concentration group average (plasma concentration) ([1]; 8 h, 1.00 = below LLOQ): 1.00 ng/mL
Low concentration group average (plasma concentration) ([1]; 12 h, 1.00 = below LLOQ): 1.00 ng/mL
Low concentration group average (plasma concentration) ([1]; 24 h, 1.00 = below LLOQ): 1.00 ng/mL
Concentrations (plasma) [1, 7]: 1.00 ng/mL
Concentrations (plasma) ([1]; 1 h, 1.00 = below LLOQ): 1.02 ng/mL
Concentrations (plasma) ([1]; 2 h, 1.00 = below LLOQ): 1.02 ng/mL
Concentrations (plasma) ([1]; 3 h, 1.00 = below LLOQ): 1.01 ng/mL
Concentrations (plasma) ([1]; 4 h, 1.00 = below LLOQ): 1.01 ng/mL
Concentrations (plasma) ([1]; 6 h, 1.00 = below LLOQ): 1.00 ng/mL
Concentrations (plasma) ([1]; 8 h, 1.00 = below LLOQ): 1.00 ng/mL
Concentrations (plasma) ([1]; 12 h, 1.00 = below LLOQ): 1.00 ng/mL
Concentrations (plasma) ([1]; 24 h, 1.00 = below LLOQ): 1.00 ng/mL

Fc1ccc(C(OCCN2CCN(CCCc3ccccc3)CC2)c2ccc(F)cc2)cc1 [Vanoxerine, 1-[2-[bis(4-fluorophenyl)methoxy]ethyl]-4-(3-phenylpropyl)piperazine]
steady-state serum levels versus dose ([2]; 25, 75, 125 mg daily): disproportionately and statistically greater levels at higher doses
adverse events ([2]; 25, 75, 125 mg daily for 14 days, healthy patients): No significant adverse events
Efficacy: Percent conversion ([3]; 200 mg (22), 0-4 hr): 18%
Efficacy: Percent conversion ([3]; 200 mg (22), 0-8 hr): 45%
Efficacy: Percent conversion ([3]; 200 mg (22), 0-24 hr): 59%
Efficacy: Percent conversion ([3]; 300 mg (25), 0-4 hr): 40%
Efficacy: Percent conversion ([3]; 300 mg (25), 0-8 hr): 52%
Efficacy: Percent conversion ([3]; 300 mg (25), 0-24 hr): 64%
Efficacy: Percent conversion ([3]; 400 mg (25), 0-4 hr): 52%
Efficacy: Percent conversion ([3]; 400 mg (25), 0-8 hr): 76%
Efficacy: Percent conversion ([3]; 400 mg (25), 0-24 hr): 84%
time to conversion to normal sinus rhythm, majority of patients ([3]; at a Cmax plasma concentration of more than 40 ng/ml): under 12 hours
Adverse events: serious adverse events ([4]; 200 mg (22)): 1 SAE
Adverse events: subjects reporting ([4]; 200 mg (22)): 4 (18%) subjects (%)
Adverse events: subjects reporting ([4]; 300 mg (25)): 7 (28%) subjects (%)
Adverse events: serious adverse events ([4]; 400 mg (25)): 1 SAE
Adverse events: subjects reporting ([4]; 400 mg (25)): 10 (40%) subjects (%)
tolerability ([4]; 200, 300, 400 mg): well tolerated at all doses
steady state levels achieved [5]: within one week
T1/2 range ([6]; 50 mg daily for 11 days): (4.71-110.57) hr
T1/2 range ([6]; 75 mg daily for 11 days): (10.26-116.67) hr
steady state reached ([6]; 50, 75 and 100 mg daily): ≤ 8 days
Tmax ([6]; human, plasma, printed in the Dose column under 50 mg, read-out: TMax range): 0.5 to 2 h

17-hydroxyl vanoxerine [M01]
High concentration group average (plasma concentration) ([1]; 2 h, 1.00 = below LLOQ): 28.00 ng/mL
Low concentration group average (plasma concentration) ([1]; 8 h, 1.00 = below LLOQ): 5.30 ng/mL
Concentrations (plasma) [1, 7]: 1.93 ng/mL
Concentrations (plasma) ([1]; 1 h, 1.00 = below LLOQ): 7.51 ng/mL
Concentrations (plasma) ([1]; 2 h, 1.00 = below LLOQ): 19.65 ng/mL
Concentrations (plasma) ([1]; 3 h, 1.00 = below LLOQ): 18.68 ng/mL
Concentrations (plasma) ([1]; 4 h, 1.00 = below LLOQ): 16.42 ng/mL
Concentrations (plasma) ([1]; 6 h, 1.00 = below LLOQ): 11.48 ng/mL
Concentrations (plasma) ([1]; 8 h, 1.00 = below LLOQ): 8.98 ng/mL
Concentrations (plasma) ([1]; 12 h, 1.00 = below LLOQ): 6.30 ng/mL
Concentrations (plasma) ([1]; 24 h, 1.00 = below LLOQ): 3.66 ng/mL
